# The kinase profiling compilation of Christmann-Franck et al. (2016)
# Assays:
# Experiment in all cases: KINOMEscan competition binding
# Settings in all cases: compound 10.0 µM
# [1] = tested on: ABL1 (human), P00519 [E255K]
# BMPR1A (human) = BMPR1A (human) (UniProt P36894)
# BMPR2 (human) = BMPR2 (human) (UniProt Q13873)
# CAMKK1 (human) = CAMKK1 (human) (UniProt Q8N5S9)
# CDK18 (human) = CDK18 (human) (UniProt Q07002)
# DYRK1A (human) = DYRK1A (human) (UniProt Q13627)
# [2] = tested on: EIF2AK4 KD2 (human), Q9P2K8 [S808G]
# EPHA8 (human) = EPHA8 (human) (UniProt P29322)
# EPHB1 (human) = EPHB1 (human) (UniProt P54762)
# EPHB3 (human) = EPHB3 (human) (UniProt P54753)
# FRK (human) = FRK (human) (UniProt P42685)
# GRK1 (human) = GRK1 (human) (UniProt Q15835)
# [3] = biological target: JAK3 JH1 catalytic (human) (UniProt P52333)
# LATS1 (human) = LATS1 (human) (UniProt O95835)
# Chain of LATS1 (human) (O95835 whole entry, looked up): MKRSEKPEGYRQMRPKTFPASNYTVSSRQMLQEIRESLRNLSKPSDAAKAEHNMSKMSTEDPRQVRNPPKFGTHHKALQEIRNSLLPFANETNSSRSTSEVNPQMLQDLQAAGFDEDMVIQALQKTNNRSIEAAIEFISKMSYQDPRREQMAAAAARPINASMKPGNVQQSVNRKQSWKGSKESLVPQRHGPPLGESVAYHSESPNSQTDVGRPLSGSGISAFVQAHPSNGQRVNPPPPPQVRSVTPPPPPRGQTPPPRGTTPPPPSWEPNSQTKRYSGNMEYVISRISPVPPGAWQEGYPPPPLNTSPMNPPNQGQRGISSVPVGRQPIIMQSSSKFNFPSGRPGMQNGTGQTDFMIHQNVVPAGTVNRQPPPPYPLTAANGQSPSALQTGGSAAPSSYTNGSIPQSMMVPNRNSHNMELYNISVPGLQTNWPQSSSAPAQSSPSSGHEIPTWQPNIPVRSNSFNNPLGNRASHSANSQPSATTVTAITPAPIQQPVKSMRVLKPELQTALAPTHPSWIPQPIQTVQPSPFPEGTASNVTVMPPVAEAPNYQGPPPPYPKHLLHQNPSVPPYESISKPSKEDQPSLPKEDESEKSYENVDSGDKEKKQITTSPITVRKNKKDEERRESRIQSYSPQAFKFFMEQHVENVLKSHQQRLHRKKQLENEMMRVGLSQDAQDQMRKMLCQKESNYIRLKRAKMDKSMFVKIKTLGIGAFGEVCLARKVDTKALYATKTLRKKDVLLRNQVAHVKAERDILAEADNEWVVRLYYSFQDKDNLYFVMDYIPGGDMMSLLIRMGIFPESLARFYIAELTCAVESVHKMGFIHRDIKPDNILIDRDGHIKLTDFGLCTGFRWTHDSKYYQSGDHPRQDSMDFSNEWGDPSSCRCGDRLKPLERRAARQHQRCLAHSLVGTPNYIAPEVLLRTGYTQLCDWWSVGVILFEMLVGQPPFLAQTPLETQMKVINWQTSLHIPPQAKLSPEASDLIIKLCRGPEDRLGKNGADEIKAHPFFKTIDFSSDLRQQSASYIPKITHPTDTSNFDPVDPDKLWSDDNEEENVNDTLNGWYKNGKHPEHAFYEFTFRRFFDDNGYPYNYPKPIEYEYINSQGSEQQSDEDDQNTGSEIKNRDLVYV
# MAP2K2 (human) = MAP2K2 (human) (UniProt P36507)
# MAP3K13 (human) = MAP3K13 (human) (UniProt O43283)
# MAP3K7 (human) = MAP3K7 (human) (UniProt O43318)
# MAP4K3 (human) = MAP4K3 (human) (UniProt Q8IVH8)
# MAPK3 (human) = MAPK3 (human) (UniProt P27361)
# MAPK8 (human) = MAPK8 (human) (UniProt P45983)
# MAPK9 (human) = MAPK9 (human) (UniProt P45984)
# MET (human) = MET (human) (UniProt P08581)
# Chain of MET (human) (P08581 whole entry, looked up): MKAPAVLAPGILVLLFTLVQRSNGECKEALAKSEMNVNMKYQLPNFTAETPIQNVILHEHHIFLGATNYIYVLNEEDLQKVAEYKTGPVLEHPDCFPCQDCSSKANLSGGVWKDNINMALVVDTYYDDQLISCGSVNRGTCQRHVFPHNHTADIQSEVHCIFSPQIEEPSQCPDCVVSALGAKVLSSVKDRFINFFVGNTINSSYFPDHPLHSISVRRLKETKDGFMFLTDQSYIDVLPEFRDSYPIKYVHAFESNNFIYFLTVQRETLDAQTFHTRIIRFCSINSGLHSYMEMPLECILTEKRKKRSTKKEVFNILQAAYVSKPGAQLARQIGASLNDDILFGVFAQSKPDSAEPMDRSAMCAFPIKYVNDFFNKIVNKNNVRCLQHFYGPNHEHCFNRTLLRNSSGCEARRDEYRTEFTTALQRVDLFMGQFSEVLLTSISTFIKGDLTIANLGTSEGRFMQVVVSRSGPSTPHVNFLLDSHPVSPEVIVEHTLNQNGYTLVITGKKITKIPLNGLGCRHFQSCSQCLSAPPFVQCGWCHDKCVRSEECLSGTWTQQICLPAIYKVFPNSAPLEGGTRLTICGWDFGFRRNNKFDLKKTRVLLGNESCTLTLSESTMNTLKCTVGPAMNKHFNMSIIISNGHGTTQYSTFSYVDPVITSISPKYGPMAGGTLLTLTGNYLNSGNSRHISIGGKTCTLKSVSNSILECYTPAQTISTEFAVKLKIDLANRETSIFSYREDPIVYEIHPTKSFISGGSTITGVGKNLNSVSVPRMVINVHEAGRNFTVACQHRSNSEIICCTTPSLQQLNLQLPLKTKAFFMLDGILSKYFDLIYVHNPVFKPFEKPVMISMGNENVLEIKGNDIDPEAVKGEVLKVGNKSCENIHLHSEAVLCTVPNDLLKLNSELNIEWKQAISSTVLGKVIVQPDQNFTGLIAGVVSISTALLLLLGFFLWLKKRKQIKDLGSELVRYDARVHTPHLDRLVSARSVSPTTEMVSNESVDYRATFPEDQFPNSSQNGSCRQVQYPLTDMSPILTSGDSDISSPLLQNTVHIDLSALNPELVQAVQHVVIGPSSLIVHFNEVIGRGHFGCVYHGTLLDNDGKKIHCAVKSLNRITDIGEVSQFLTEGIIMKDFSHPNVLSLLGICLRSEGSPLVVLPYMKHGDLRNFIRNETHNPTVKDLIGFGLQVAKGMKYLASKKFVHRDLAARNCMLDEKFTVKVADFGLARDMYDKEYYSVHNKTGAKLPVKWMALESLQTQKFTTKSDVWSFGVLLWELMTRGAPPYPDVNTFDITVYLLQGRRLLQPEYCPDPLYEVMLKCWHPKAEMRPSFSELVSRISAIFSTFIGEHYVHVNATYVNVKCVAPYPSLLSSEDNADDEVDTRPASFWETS
# MYLK3 (human) = MYLK3 (human) (UniProt Q32MK0)
# Chain of MYLK3 (human) (Q32MK0 whole entry, looked up): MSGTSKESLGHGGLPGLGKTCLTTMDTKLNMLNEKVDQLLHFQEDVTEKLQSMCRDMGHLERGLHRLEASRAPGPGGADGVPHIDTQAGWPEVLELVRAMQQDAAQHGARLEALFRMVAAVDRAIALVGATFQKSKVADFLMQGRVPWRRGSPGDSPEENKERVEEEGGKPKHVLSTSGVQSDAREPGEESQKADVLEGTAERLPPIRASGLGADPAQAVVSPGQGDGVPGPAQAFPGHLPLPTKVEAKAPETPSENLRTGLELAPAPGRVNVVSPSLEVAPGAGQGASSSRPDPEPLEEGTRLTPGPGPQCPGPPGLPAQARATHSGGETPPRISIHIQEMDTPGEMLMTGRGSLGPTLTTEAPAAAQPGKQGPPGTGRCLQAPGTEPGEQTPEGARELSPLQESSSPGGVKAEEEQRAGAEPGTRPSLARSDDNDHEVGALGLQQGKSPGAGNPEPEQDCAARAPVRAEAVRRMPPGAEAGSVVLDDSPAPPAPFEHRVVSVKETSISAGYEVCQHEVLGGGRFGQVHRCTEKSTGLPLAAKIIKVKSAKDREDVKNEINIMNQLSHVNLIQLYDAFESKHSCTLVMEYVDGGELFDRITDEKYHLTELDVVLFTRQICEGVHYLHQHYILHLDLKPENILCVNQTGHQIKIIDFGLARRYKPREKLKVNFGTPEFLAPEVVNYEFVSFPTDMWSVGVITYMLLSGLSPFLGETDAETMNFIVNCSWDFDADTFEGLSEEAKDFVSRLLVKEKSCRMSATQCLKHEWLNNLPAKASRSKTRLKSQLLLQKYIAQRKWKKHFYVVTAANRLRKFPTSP
# NEK1 (human) = NEK1 (human) (UniProt Q96PY6)
# PAK7 (human) = PAK7 (human) (UniProt Q9P286)
# PIK3CA (human) = PIK3CA (human) (UniProt P42336)
# PIM2 (human) = PIM2 (human) (UniProt Q9P1W9)
# PIP5K1A (human) = PIP5K1A (human) (UniProt Q99755)
# PRKCD (human) = PRKCD (human) (UniProt Q05655)
# PRKCH (human) = PRKCH (human) (UniProt P24723)
# [4] = tested on: RET (human), P07949 [V804M]
# RIPK2 (human) = RIPK2 (human) (UniProt O43353)
# RPS6KA1 KD1 (human) = RPS6KA1 KD1 (human) (UniProt Q15418)
# RPS6KA1 KD2 (human) = RPS6KA1 KD2 (human) (UniProt Q15418)
# RPS6KA6 KD1 (human) = RPS6KA6 KD1 (human) (UniProt Q9UK32)
# Chain of RPS6KA6 KD1 (human) (Q9UK32 whole entry, looked up): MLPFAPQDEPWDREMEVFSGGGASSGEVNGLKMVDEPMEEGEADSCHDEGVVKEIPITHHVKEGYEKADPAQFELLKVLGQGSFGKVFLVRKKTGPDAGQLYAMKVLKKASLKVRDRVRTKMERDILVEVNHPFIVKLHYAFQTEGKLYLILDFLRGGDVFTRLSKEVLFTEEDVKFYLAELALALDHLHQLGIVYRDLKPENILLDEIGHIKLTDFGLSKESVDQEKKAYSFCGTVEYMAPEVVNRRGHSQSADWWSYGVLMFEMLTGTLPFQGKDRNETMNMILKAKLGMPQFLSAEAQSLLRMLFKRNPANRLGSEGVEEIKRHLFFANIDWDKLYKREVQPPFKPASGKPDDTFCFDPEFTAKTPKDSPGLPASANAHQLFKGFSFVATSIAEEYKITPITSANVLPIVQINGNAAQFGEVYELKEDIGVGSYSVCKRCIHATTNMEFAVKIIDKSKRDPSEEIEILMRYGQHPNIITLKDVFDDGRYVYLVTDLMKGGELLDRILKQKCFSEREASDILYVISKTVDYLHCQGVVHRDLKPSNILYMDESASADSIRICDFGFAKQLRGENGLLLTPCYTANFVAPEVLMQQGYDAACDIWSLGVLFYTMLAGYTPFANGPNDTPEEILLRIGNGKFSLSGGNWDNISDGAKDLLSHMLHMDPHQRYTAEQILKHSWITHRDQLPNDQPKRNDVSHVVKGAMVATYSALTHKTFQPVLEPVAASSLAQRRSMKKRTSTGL
# SRMS (human) = SRMS (human) (UniProt Q9H3Y6)
# STK3 (human) = STK3 (human) (UniProt Q13188)
# Chain of STK3 (human) (Q13188 whole entry, looked up): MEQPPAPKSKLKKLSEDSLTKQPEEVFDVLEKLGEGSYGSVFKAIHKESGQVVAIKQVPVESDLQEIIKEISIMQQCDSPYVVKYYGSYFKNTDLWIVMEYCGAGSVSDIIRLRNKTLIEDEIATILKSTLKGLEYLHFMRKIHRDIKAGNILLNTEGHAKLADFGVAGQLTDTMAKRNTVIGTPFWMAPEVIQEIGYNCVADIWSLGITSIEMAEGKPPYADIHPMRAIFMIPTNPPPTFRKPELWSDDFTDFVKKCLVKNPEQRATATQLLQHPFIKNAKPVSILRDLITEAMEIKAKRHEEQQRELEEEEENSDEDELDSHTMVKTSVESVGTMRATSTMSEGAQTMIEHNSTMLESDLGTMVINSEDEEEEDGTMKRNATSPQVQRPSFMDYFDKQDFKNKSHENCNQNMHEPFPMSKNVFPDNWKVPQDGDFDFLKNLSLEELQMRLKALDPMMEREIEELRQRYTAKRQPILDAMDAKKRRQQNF
# TLK1 (human) = TLK1 (human) (UniProt Q9UKI8)
# TNK2 (human) = TNK2 (human) (UniProt Q07912)
# [5] = biological target: TYK2 JH2 pseudokinase (human) (UniProt P29597)
# INSR (human) = INSR (human) (UniProt P06213)
# Chain of CDK18 (human) (Q07002 whole entry, looked up): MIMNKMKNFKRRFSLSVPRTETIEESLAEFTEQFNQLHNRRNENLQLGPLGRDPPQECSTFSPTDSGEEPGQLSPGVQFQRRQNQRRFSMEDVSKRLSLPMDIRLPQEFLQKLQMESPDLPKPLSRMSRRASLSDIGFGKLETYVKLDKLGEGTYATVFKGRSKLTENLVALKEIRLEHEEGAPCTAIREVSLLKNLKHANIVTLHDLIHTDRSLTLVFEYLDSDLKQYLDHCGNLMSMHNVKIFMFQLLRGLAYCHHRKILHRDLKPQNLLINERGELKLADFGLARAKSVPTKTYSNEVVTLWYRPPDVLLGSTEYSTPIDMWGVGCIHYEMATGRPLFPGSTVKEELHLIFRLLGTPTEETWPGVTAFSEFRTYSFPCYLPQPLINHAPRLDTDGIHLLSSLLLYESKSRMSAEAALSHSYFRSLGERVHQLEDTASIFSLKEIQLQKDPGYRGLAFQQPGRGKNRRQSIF
compound,measurement,setting,value
COc1ccc(CNC(=O)Nc2ncc([N+](=O)[O-])s2)cc1,"kinase still bound, per cent of control",[1],100%
same,"kinase still bound, per cent of control",BMPR1A (human),78%
same,"kinase still bound, per cent of control",BMPR2 (human),100%
same,"kinase still bound, per cent of control",CAMKK1 (human),93%
same,"kinase still bound, per cent of control",CDK18 (human),89%
same,"kinase still bound, per cent of control",DYRK1A (human),100%
same,"kinase still bound, per cent of control",[2],100%
same,"kinase still bound, per cent of control",EPHA8 (human),100%
same,"kinase still bound, per cent of control",EPHB1 (human),85%
same,"kinase still bound, per cent of control",EPHB3 (human),100%
same,"kinase still bound, per cent of control",FRK (human),98%
same,"kinase still bound, per cent of control",GRK1 (human),100%
same,"kinase still bound, per cent of control",[3],100%
same,"kinase still bound, per cent of control",LATS1 (human),100%
same,"kinase still bound, per cent of control",MAP2K2 (human),100%
same,"kinase still bound, per cent of control",MAP3K13 (human),70%
same,"kinase still bound, per cent of control",MAP3K7 (human),88%
same,"kinase still bound, per cent of control",MAP4K3 (human),90%
same,"kinase still bound, per cent of control",MAPK3 (human),100%
same,"kinase still bound, per cent of control",MAPK8 (human),100%
same,"kinase still bound, per cent of control",MAPK9 (human),84%
same,"kinase still bound, per cent of control",MET (human),92%
same,"kinase still bound, per cent of control",MYLK3 (human),52%
same,"kinase still bound, per cent of control",NEK1 (human),100%
same,"kinase still bound, per cent of control",PAK7 (human),96%
same,"kinase still bound, per cent of control",PIK3CA (human),100%
same,"kinase still bound, per cent of control",PIM2 (human),76%
same,"kinase still bound, per cent of control",PIP5K1A (human),70%
same,"kinase still bound, per cent of control",PRKCD (human),100%
same,"kinase still bound, per cent of control",PRKCH (human),100%
same,"kinase still bound, per cent of control",[4],96%
same,"kinase still bound, per cent of control",RIPK2 (human),95%
same,"kinase still bound, per cent of control",RPS6KA1 KD1 (human),100%
same,"kinase still bound, per cent of control",RPS6KA1 KD2 (human),100%
same,"kinase still bound, per cent of control",RPS6KA6 KD1 (human),100%
same,"kinase still bound, per cent of control",SRMS (human),75%
same,"kinase still bound, per cent of control",STK3 (human),3.4%
same,"kinase still bound, per cent of control",TLK1 (human),96%
same,"kinase still bound, per cent of control",TNK2 (human),96%
same,"kinase still bound, per cent of control",[5],66%
Cc1cnc(-c2cnc(NCCNc3ccc(C#N)cn3)nc2-c2ccc(Cl)cc2Cl)[nH]1,"kinase still bound, per cent of control",[1],100%
same,"kinase still bound, per cent of control",BMPR1A (human),100%
same,"kinase still bound, per cent of control",BMPR2 (human),90%
same,"kinase still bound, per cent of control",CAMKK1 (human),100%
same,"kinase still bound, per cent of control",CDK18 (human),100%
same,"kinase still bound, per cent of control",DYRK1A (human),100%
same,"kinase still bound, per cent of control",[2],100%
same,"kinase still bound, per cent of control",EPHA8 (human),100%
same,"kinase still bound, per cent of control",EPHB1 (human),96%
same,"kinase still bound, per cent of control",EPHB3 (human),100%
same,"kinase still bound, per cent of control",FRK (human),100%
same,"kinase still bound, per cent of control",GRK1 (human),96%
same,"kinase still bound, per cent of control",INSR (human),100%
same,"kinase still bound, per cent of control",[3],100%
same,"kinase still bound, per cent of control",LATS1 (human),100%
same,"kinase still bound, per cent of control",MAP2K2 (human),100%
same,"kinase still bound, per cent of control",MAP3K13 (human),80%
same,"kinase still bound, per cent of control",MAP3K7 (human),51%
same,"kinase still bound, per cent of control",MAP4K3 (human),96%
same,"kinase still bound, per cent of control",MAPK3 (human),100%
same,"kinase still bound, per cent of control",MAPK8 (human),94%
same,"kinase still bound, per cent of control",MAPK9 (human),87%
same,"kinase still bound, per cent of control",MET (human),96%
same,"kinase still bound, per cent of control",MYLK3 (human),78%
same,"kinase still bound, per cent of control",NEK1 (human),79%
same,"kinase still bound, per cent of control",PAK7 (human),100%
same,"kinase still bound, per cent of control",PIK3CA (human),100%
same,"kinase still bound, per cent of control",PIM2 (human),89%
same,"kinase still bound, per cent of control",PIP5K1A (human),100%
same,"kinase still bound, per cent of control",PRKCD (human),100%
same,"kinase still bound, per cent of control",PRKCH (human),100%
same,"kinase still bound, per cent of control",[4],90%
same,"kinase still bound, per cent of control",RIPK2 (human),100%
same,"kinase still bound, per cent of control",RPS6KA1 KD1 (human),100%
same,"kinase still bound, per cent of control",RPS6KA1 KD2 (human),91%
same,"kinase still bound, per cent of control",RPS6KA6 KD1 (human),89%
same,"kinase still bound, per cent of control",SRMS (human),95%
same,"kinase still bound, per cent of control",STK3 (human),100%
same,"kinase still bound, per cent of control",TLK1 (human),75%
same,"kinase still bound, per cent of control",TNK2 (human),100%
same,"kinase still bound, per cent of control",[5],68%
Cn1cc(C2=C(c3ccc(Cl)cc3Cl)C(=O)NC2=O)c2ccccc21,"kinase still bound, per cent of control",[1],100%
same,"kinase still bound, per cent of control",BMPR1A (human),100%
same,"kinase still bound, per cent of control",BMPR2 (human),100%
same,"kinase still bound, per cent of control",CAMKK1 (human),68%
same,"kinase still bound, per cent of control",CDK18 (human),7.4%
same,"kinase still bound, per cent of control",DYRK1A (human),2.3%
same,"kinase still bound, per cent of control",[2],100%
same,"kinase still bound, per cent of control",EPHA8 (human),100%
same,"kinase still bound, per cent of control",EPHB1 (human),91%
same,"kinase still bound, per cent of control",EPHB3 (human),100%
same,"kinase still bound, per cent of control",FRK (human),100%
same,"kinase still bound, per cent of control",GRK1 (human),83%
same,"kinase still bound, per cent of control",INSR (human),91%
same,"kinase still bound, per cent of control",[3],98%
same,"kinase still bound, per cent of control",LATS1 (human),100%
same,"kinase still bound, per cent of control",MAP2K2 (human),100%
same,"kinase still bound, per cent of control",MAP3K13 (human),84%
same,"kinase still bound, per cent of control",MAP3K7 (human),100%
same,"kinase still bound, per cent of control",MAP4K3 (human),70%
same,"kinase still bound, per cent of control",MAPK3 (human),99%
same,"kinase still bound, per cent of control",MAPK8 (human),77%
same,"kinase still bound, per cent of control",MAPK9 (human),59%
same,"kinase still bound, per cent of control",MET (human),79%
same,"kinase still bound, per cent of control",MYLK3 (human),90%
same,"kinase still bound, per cent of control",NEK1 (human),86%
same,"kinase still bound, per cent of control",PAK7 (human),75%
same,"kinase still bound, per cent of control",PIK3CA (human),92%
same,"kinase still bound, per cent of control",PIM2 (human),84%
same,"kinase still bound, per cent of control",PIP5K1A (human),100%
same,"kinase still bound, per cent of control",PRKCD (human),41%
same,"kinase still bound, per cent of control",PRKCH (human),79%
same,"kinase still bound, per cent of control",[4],83%
same,"kinase still bound, per cent of control",RIPK2 (human),94%
same,"kinase still bound, per cent of control",RPS6KA1 KD1 (human),58%
same,"kinase still bound, per cent of control",RPS6KA1 KD2 (human),53%
same,"kinase still bound, per cent of control",RPS6KA6 KD1 (human),75%
same,"kinase still bound, per cent of control",SRMS (human),86%
same,"kinase still bound, per cent of control",STK3 (human),9.9%
same,"kinase still bound, per cent of control",TLK1 (human),36%
same,"kinase still bound, per cent of control",TNK2 (human),100%
same,"kinase still bound, per cent of control",[5],32%
